# Assay results as given in US5208032A, “Increasing the growth of turkeys using implant of 19-nortestosterone” (Rutgers, The State University of New Jersey, priority 1992, dated 1993).
# Experiments:
# [1] = Comparison of growth on treated male turkeys (Study I, Table V); type: in vivo, Large White Nicholas turkeys; parameters: Abdominal Adipose: unit not given here; details: intact male; for Feed/Gain Ratio: n = 4; for Abdominal Adipose (%) / Average Daily Gain (%) / Final 10-Week Body Weight (%) / Right Breast Muscle (%) / Feed Efficiency: change vs placebo; for Abdominal Adipose (%): unsigned (decrease); for Average Daily Gain (%) / Final 10-Week Body Weight (%) / Right Breast Muscle (%): unsigned (increase); for Feed Efficiency: column head prints (g), cells %
# Description: (§1) The same large white strain of turkey (received 1 day posthatching from Nicholas Breeding Farms, CA) was used in all studies. Poults were reared in deep litter brooder pens from 1 day posthatch and exposed to constant light until initiation of Studies I and III or through completion in the case of Study II. Studies I and III were conducted in an environmentally controlled room (photoperiod 12L:12D) with birds housed individually in wire-floored layer cages (space dimensions of 0.31 W×0.46 L×0.53 H meters per cage). Water and feed (Agway Game and Turkey Starter Crumbles) was available at all times. Turkeys were rank ordered by weight and distributed into treatment groups of equal mean body weights at the start of each Study (I, II and III).
# (§2) Body weight determinations were made at the second and final week of each study, and several organs and tissues were excised and immediately weighed at the time of necropsy. Final shank-toe length, as an indicator of skeletal growth, was also determined. Birds were sacrificed via exanguination by laceration of the jugular vein. Specific details on the experimental design and conduct of each turkey study will follow.
# At 7 weeks of age, forty-nine male turkeys were rank ordered by weight and assigned to 7 treatment groups ([…]) of equal mean weights. Within treatment groups, two birds were individually caged (layer cages measuring 0.31 W×0.46 L×0.53 H meters/cage) side by side on one of three tiers (5 cages/tier and 3 tiers/rack). […] Individual treatment units (or bird sets) were randomized (planned) into cages among tiers and racks to eliminate any rack (5) or tier (3 vertical) effects within the room.
# Group 1 control males were implanted with a 50-mg compressed (methylcellulose/lactose) placebo pellet. The remaining 6 treatment groups were as follows: Group 2, 50-mg testosterone pellet; Group 3, 50-mg 5-alpha-DHT pellet; Group 4, 50-mg 19-nortestosterone pellet; Group 5, 5.0-cm testosterone Silastic polysiloxane capsule; Group 6, 5-cm 5-alpha-DHT Silastic polysiloxane capsule and Group 7, 5.0-cm 19-nortestosterone Silastic polysiloxane capsule. Excluding feed efficiency, data means for all parameters were compared between treatments using individual birds as replicates (n=8). Data means for feed efficiency were compared between treatments using sets of birds as replicates (n=4).
# [2] = Comparison of growth in treated female turkeys (Study II, Table IV); type: in vivo, Large White Nicholas turkeys; parameters: Abdominal Adipose: unit not given here; details: intact female; for Feed/Gain Ratio: 6 through 9 weeks; for Abdominal Adipose (%) / Feed/Gain Ratio (%) / Average Daily Gain (%) / Final 9-Week Body Weight (%) / Right Breast Muscle (%): change vs placebo; for Abdominal Adipose (%) / Feed/Gain Ratio (%): unsigned (decrease); for Average Daily Gain (%) / Final 9-Week Body Weight (%) / Right Breast Muscle (%): unsigned (increase)
# Description: as §1, §2
# At 6 weeks of age, seventy-seven female turkeys were rank ordered by weight and assigned to 7 treatment groups (11 birds per group) of equal mean weights. Within treatment groups, birds were further allotted to deep-litter pens (3.66×4.27 m) containing 4 subdivisions (0.91×1.22 m), with 3 birds per subdivision except for the last which contained 2. Individual treatment units (or pen subdivisions) were randomized (planned) among pens within the building, such that each pen contained 4 different treatment units (3 or 2 birds each). Feed consumption for each treatment unit was measured; thus, 4 replicates per treatment for feed consumption and feed/gain ratios (or feed efficiency) were calculated.
# Treatments entailed the subcutaneous implantation (between the shoulders) of testosterone, 5-alpha-DHT or 19-nortestosterone as either a low (5-mg) or high (50-mg) dose pellet (Innovative Research of America, Rockville, Md.). Implants were specially constructed (steroid compressed into a methylcellulose/lactose pellet) to release respective steroids at a constant rate over a 21 day period (manufacturer statement). In support, a recent report by Satyaswaroop et al. (1984) on mice, found Innovative Research 17 beta-estradiol pellets to have excellent 21-day continued release characteristics (i.e., maintained blood levels of 20-30 ng/ml for 21 days). Group 1 controls were composed of females implanted with a 50-mg placebo pellet. The remaining 6 female treatment groups were as follows: Group 2, testosterone (5-mg); Group 3, 5-alpha-DHT (5-mg); Group 4, 19-nortestosterone (5-mg); Group 5, testosterone (50-mg); Group 6, 5-alpha-DHT (50-mg) and Group 7, 19-nortestosterone (50-mg). Excluding feed efficiency, data means for all other parameters were compared between treatments using individual birds as replicates (n=11). Data means for feed consumption and feed efficiency were compared between treatments using pen subdivisions (3 or 2 birds/subdivision) as replicates (n=8).
# ^a 5 or 50mg slow release pellets (Innovative Research) administered
# subcutaneously at 6 weeks of age.
# ^b Data for Feed to Gain Ratio is computed for the period 6 through 9
# weeks of age. Experimental units are floor pens (n = 4) of […]
# values are means and SEM of the pen averages.
smiles,measurement,setting,value
"C[C@]12CC[C@H]3[C@@H](CCC4=CC(=O)CC[C@@]43C)[C@@H]1CC[C@@H]2O [Testosterone, testosterone]",Abdominal Adipose,[1]; 5-cm Silastic capsule,13.2 ± 3.57
same,Average Daily Gain,[1]; 5-cm Silastic capsule,115 ± 2 g
same,Final 10-Week Body Weight,[1]; 5-cm Silastic capsule,5055 ± 61 g
same,Final 10-Week Shank-Toe Length,[1]; 5-cm Silastic capsule,24.2 ± 0.18 cm
same,Right Breast Muscle,[1]; 5-cm Silastic capsule,457 ± 20 g
same,Feed/Gain Ratio,[1]; 5-cm Silastic capsule,2.39 ± 0.088
same,Abdominal Adipose,[1]; 50-mg pellet,11.61 ± 1.37
same,Average Daily Gain,[1]; 50-mg pellet,116 ± 4 g
same,Final 10-Week Body Weight,[1]; 50-mg pellet,5100 ± 82 g
same,Final 10-Week Shank-Toe Length,[1]; 50-mg pellet,23.6 ± 0.19 cm
same,Right Breast Muscle,[1]; 50-mg pellet,450 ± 10 g
same,Feed/Gain Ratio,[1]; 50-mg pellet,2.37 ± 0.086
same,Abdominal Adipose,[2]; 5-mg pellet,20.2
same,Average Daily Gain,[2]; 5-mg pellet,108 ± 2 g
same,Final 9-Week Body Weight,[2]; 5-mg pellet,4096 ± 65 g
same,Final 9-Week Shank-Toe Length,[2]; 5-mg pellet,18.9 ± 0.16 cm
same,Right Breast Muscle,[2]; 5-mg pellet,430 ± 15 g
same,Feed/Gain Ratio,[2]; 5-mg pellet,2.01 ± 0.05
same,Abdominal Adipose (%),[2]; 5-mg pellet,32%
same,Abdominal Adipose,[2]; 50-mg pellet,22.8
same,Average Daily Gain,[2]; 50-mg pellet,119 ± 3 g
same,Final 9-Week Body Weight,[2]; 50-mg pellet,4320 ± 69 g
same,Final 9-Week Shank-Toe Length,[2]; 50-mg pellet,18.6 ± 0.13 cm
same,Right Breast Muscle,[2]; 50-mg pellet,477 ± 17 g
same,Feed/Gain Ratio,[2]; 50-mg pellet,1.91 ± 0.04
same,Abdominal Adipose (%),[2]; 50-mg pellet,23%
same,Feed/Gain Ratio (%),[2]; 50-mg pellet,9.5%
same,Average Daily Gain (%),[2]; 50-mg pellet,15.5%
same,Final 9-Week Body Weight (%),[2]; 50-mg pellet,7.7%
same,Right Breast Muscle (%),[2]; 50-mg pellet,22.3%
"C[C@]12CC[C@H]3[C@@H](CCC4=CC(=O)CC[C@@H]43)[C@@H]1CC[C@@H]2O [19-Nortestosterone, 19-nortestosterone]",Abdominal Adipose,[1]; 5-cm Silastic capsule,7.88 ± 2.10
same,Average Daily Gain,[1]; 5-cm Silastic capsule,131 ± 3 g
same,Final 10-Week Body Weight,[1]; 5-cm Silastic capsule,5410 ± 73 g
same,Final 10-Week Shank-Toe Length,[1]; 5-cm Silastic capsule,23.5 ± 0.15 cm
same,Right Breast Muscle,[1]; 5-cm Silastic capsule,513 ± 15 g
same,Feed/Gain Ratio,[1]; 5-cm Silastic capsule,1.94 ± 0.041
same,Abdominal Adipose (%),[1]; 5-cm capsule,52.8%
same,Average Daily Gain (%),[1]; 5-cm capsule,20.2%
same,Final 10-Week Body Weight (%),[1]; 5-cm capsule,10.2%
same,Right Breast Muscle (%),[1]; 5-cm capsule,12.6%
same,Feed Efficiency,[1]; 5-cm capsule,23.6%
same,Abdominal Adipose,[1]; 50-mg pellet,6.74 ± 1.57
same,Average Daily Gain,[1]; 50-mg pellet,132 ± 6 g
same,Final 10-Week Body Weight,[1]; 50-mg pellet,5416 ± 136 g
same,Final 10-Week Shank-Toe Length,[1]; 50-mg pellet,23.3 ± 0.22 cm
same,Right Breast Muscle,[1]; 50-mg pellet,529 ± 22 g
same,Feed/Gain Ratio,[1]; 50-mg pellet,1.99 ± 0.091
same,Abdominal Adipose (%),[1]; 50-mg pellet,59.6%
same,Average Daily Gain (%),[1]; 50-mg pellet,21.1%
same,Final 10-Week Body Weight (%),[1]; 50-mg pellet,10.3%
same,Right Breast Muscle (%),[1]; 50-mg pellet,23.3%
same,Feed Efficiency,[1]; 50-mg pellet,21.6%
same,Abdominal Adipose,[2]; 5-mg pellet,22.8
same,Average Daily Gain,[2]; 5-mg pellet,108 ± 3 g
same,Final 9-Week Body Weight,[2]; 5-mg pellet,4115 ± 122 g
same,Final 9-Week Shank-Toe Length,[2]; 5-mg pellet,18.87 ± 0.25 cm
same,Right Breast Muscle,[2]; 5-mg pellet,439 ± 15 g
same,Feed/Gain Ratio,[2]; 5-mg pellet,1.92 ± 0.04
same,Abdominal Adipose (%),[2]; 5-mg pellet,23%
same,Feed/Gain Ratio (%),[2]; 5-mg pellet,9.0%
same,Right Breast Muscle (%),[2]; 5-mg pellet,12.6%
same,Abdominal Adipose,[2]; 50-mg pellet,18.7
same,Average Daily Gain,[2]; 50-mg pellet,127 ± 3 g
same,Final 9-Week Body Weight,[2]; 50-mg pellet,4476 ± 94 g
same,Final 9-Week Shank-Toe Length,[2]; 50-mg pellet,18.31 ± 0.24 cm
same,Right Breast Muscle,[2]; 50-mg pellet,493 ± 17 g
same,Feed/Gain Ratio,[2]; 50-mg pellet,1.76 ± 0.07
same,Abdominal Adipose (%),[2]; 50-mg pellet,37%
same,Feed/Gain Ratio (%),[2]; 50-mg pellet,16.6%
same,Average Daily Gain (%),[2]; 50-mg pellet,23.3%
same,Final 9-Week Body Weight (%),[2]; 50-mg pellet,11.6%
same,Right Breast Muscle (%),[2]; 50-mg pellet,26.4%
"C[C@]12CCC(=O)C[C@@H]1CC[C@@H]1[C@@H]2CC[C@]2(C)[C@@H](O)CC[C@@H]12 [5-alpha-DHT, 5-alpha-dihydrotestosterone]",Abdominal Adipose,[1]; 5-cm Silastic capsule,12.2 ± 1.44
same,Average Daily Gain,[1]; 5-cm Silastic capsule,113 ± 3 g
same,Final 10-Week Body Weight,[1]; 5-cm Silastic capsule,4985 ± 60 g
same,Final 10-Week Shank-Toe Length,[1]; 5-cm Silastic capsule,24.4 ± 0.15 cm
same,Right Breast Muscle,[1]; 5-cm Silastic capsule,465 ± 17 g
same,Feed/Gain Ratio,[1]; 5-cm Silastic capsule,2.30 ± 0.120
same,Right Breast Muscle (%),[1]; 5-cm capsule,8.4%
same,Feed Efficiency,[1]; 5-cm capsule,9.4%
same,Abdominal Adipose,[1]; 50-mg pellet,9.53 ± 1.12
same,Average Daily Gain,[1]; 50-mg pellet,120 ± 3 g
same,Final 10-Week Body Weight,[1]; 50-mg pellet,5202 ± 44 g
same,Final 10-Week Shank-Toe Length,[1]; 50-mg pellet,24.3 ± 0.28 cm
same,Right Breast Muscle,[1]; 50-mg pellet,460 ± 10 g
same,Feed/Gain Ratio,[1]; 50-mg pellet,2.33 ± 0.079
same,Average Daily Gain (%),[1]; 50-mg pellet,10.1%
same,Final 10-Week Body Weight (%),[1]; 50-mg pellet,6.0%
same,Right Breast Muscle (%),[1]; 50-mg pellet,7.2%
same,Abdominal Adipose,[2]; 5-mg pellet,21.4
same,Average Daily Gain,[2]; 5-mg pellet,106 ± 2 g
same,Final 9-Week Body Weight,[2]; 5-mg pellet,4073 ± 72 g
same,Final 9-Week Shank-Toe Length,[2]; 5-mg pellet,18.6 ± 0.21 cm
same,Right Breast Muscle,[2]; 5-mg pellet,415 ± 7 g
same,Feed/Gain Ratio,[2]; 5-mg pellet,2.03 ± 0.03
same,Abdominal Adipose (%),[2]; 5-mg pellet,28%
same,Abdominal Adipose,[2]; 50-mg pellet,20.2
same,Average Daily Gain,[2]; 50-mg pellet,121 ± 3 g
same,Final 9-Week Body Weight,[2]; 50-mg pellet,4365 ± 84 g
same,Final 9-Week Shank-Toe Length,[2]; 50-mg pellet,18.79 ± 0.25 cm
same,Right Breast Muscle,[2]; 50-mg pellet,487 ± 13 g
same,Feed/Gain Ratio,[2]; 50-mg pellet,1.82 ± 0.03
same,Abdominal Adipose (%),[2]; 50-mg pellet,32%
same,Feed/Gain Ratio (%),[2]; 50-mg pellet,13.7%
same,Average Daily Gain (%),[2]; 50-mg pellet,17.5%
same,Final 9-Week Body Weight (%),[2]; 50-mg pellet,8.9%
same,Right Breast Muscle (%),[2]; 50-mg pellet,24.9%
